“And” between values parts separate entries of the source, which are not always exact repeats. Equal values may be shown once. Inconclusive results and toxic doses are left out.
System: P388 leukemia ip, CD2F1 mice, survival T/C
Experiment: NCI In Vivo Anticancer Drug Screen. Data for tumor model P388 Leukemia (intraperitoneal) in CD2F1 (CDF1) mice
Conditions: endpoint: median survival time, higher = longer survival
Summary of the method: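 Mice carrying the transplanted tumor received test compound or vehicle. Survival was recorded in each group, and the value is the treated-group measurement divided by that of the vehicle-treated control group.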

[1] = dose: 50.0 mg/kg/injection, schedule: Q01DX009 (ip), vehicle: Klucel (hydroxypropylcellulose) (HPC)
[2] = dose: 50.0 mg/kg/injection, schedule: Q01DX009 (ip), vehicle: saline with Tween-80
[3] = dose: 100.0 mg/kg/injection, schedule: Q01DX009 (ip), vehicle: Klucel (hydroxypropylcellulose) (HPC)
[4] = dose: 100.0 mg/kg/injection, schedule: Q04DX003 (ip), vehicle: Klucel (hydroxypropylcellulose) (HPC)
[5] = dose: 200.0 mg/kg/injection, schedule: Q01DX009 (ip), vehicle: saline with Tween-80
[6] = dose: 50.0 mg/kg/injection, schedule: Q01DX005 (ip), vehicle: saline with Tween-80
[7] = dose: 100.0 mg/kg/injection, schedule: Q01DX005 (ip), vehicle: saline with Tween-80
[8] = dose: 200.0 mg/kg/injection, schedule: Q01DX005 (ip), vehicle: saline with Tween-80

Question: For `NC(CSC(c1ccccc1)(c1ccccc1)c1ccccc1)C(=O)O` (configuration not stated), which T/C (dose: 1.56 mg/kg/injection, schedule: Q01DX009 (ip), vehicle: saline with Tween-80) is on record?
Answer: 108 % of control

Question: What about the T/C (dose: 3.12 mg/kg/injection, schedule: Q01DX009 (ip), vehicle: Klucel (hydroxypropylcellulose) (HPC)) of the same molecule?
Answer: 86 % of control

Question: And the T/C (dose: 6.25 mg/kg/injection, schedule: Q01DX009 (ip), vehicle: Klucel (hydroxypropylcellulose) (HPC))?
Answer: 121 % of control and 90 % of control

Question: And the T/C (dose: 6.25 mg/kg/injection, schedule: Q01DX009 (ip), vehicle: saline with Tween-80)?
Answer: 119 % of control

Question: And the T/C (dose: 6.25 mg/kg/injection, schedule: Q01DX009 (ip), vehicle: water)?
Answer: 110 % of control and 118 % of control

Question: And the T/C (dose: 12.5 mg/kg/injection, schedule: Q01DX009 (ip), vehicle: Klucel (hydroxypropylcellulose) (HPC))?
Answer: 92 % of control

Question: What about the T/C (dose: 12.5 mg/kg/injection, schedule: Q01DX009 (ip), vehicle: water) of the same molecule?
Answer: 118 % of control

Question: What about the T/C (dose: 20.0 mg/kg/injection, schedule: Q01DX001 (ip), vehicle: water) of the same molecule?
Answer: 104 % of control

Question: And the T/C (dose: 25.0 mg/kg/injection, schedule: Q01DX009 (ip), vehicle: Klucel (hydroxypropylcellulose) (HPC))?
Answer: 163 % of control

Question: And the T/C (dose: 25.0 mg/kg/injection, schedule: Q01DX009 (ip), vehicle: water)?
Answer: 168 % of control

Question: And the T/C (dose: 25.0 mg/kg/injection, schedule: Q01DX009 (oral), vehicle: saline with Tween-80)?
Answer: 123 % of control

Question: What about the T/C (dose: 40.0 mg/kg/injection, schedule: Q01DX001 (ip), vehicle: water) of the same molecule?
Answer: 111 % of control

Question: And the T/C (dose: 40.0 mg/kg/injection, schedule: Q01DX009 (ip), vehicle: water)?
Answer: 168 % of control and 186 % of control

Question: What about the T/C [1] of the same molecule?
Answer: 192 % of control

Question: What about the T/C [2] of the same molecule?
Answer: 180 % of control [middle of 5 runs]

Question: What about the T/C (dose: 50.0 mg/kg/injection, schedule: Q01DX009 (ip), vehicle: water) of the same molecule?
Answer: 159 % of control and 163 % of control and 183 % of control

Question: What about the T/C (dose: 50.0 mg/kg/injection, schedule: Q01DX009 (oral), vehicle: saline with Tween-80) of the same molecule?
Answer: 119 % of control

Question: And the T/C (dose: 66.0 mg/kg/injection, schedule: Q04DX003 (ip), vehicle: Klucel (hydroxypropylcellulose) (HPC))?
Answer: 225 % of control

Question: What about the T/C (dose: 80.0 mg/kg/injection, schedule: Q01DX001 (ip), vehicle: water) of the same molecule?
Answer: 111 % of control

Question: And the T/C [3]?
Answer: 100 % of control

Question: What about the T/C (dose: 100.0 mg/kg/injection, schedule: Q01DX009 (oral), vehicle: saline with Tween-80) of the same molecule?
Answer: 153 % of control

Question: And the T/C [4]?
Answer: 175 % of control

Question: And the T/C [5]?
Answer: 167 % of control and 175 % of control

Question: With `CC(C)(C)SC(=S)SCC(=O)c1cc2cc(Br)ccc2o1` as the molecule, how does the T/C [6] read?
Answer: 89 % of control

Question: And the T/C [7]?
Answer: 96 % of control

Question: And the T/C [8]?
Answer: 93 % of control

Question: Which results are given for `[Cl][Sn]1([Cl])[CH2]CC[CH2][Sn]([Cl])([Cl])[CH2]CC[CH2][Sn]([Cl])([Cl])[CH2]CC[CH2][Sn]([Cl])([Cl])[CH2]CC[CH2]1`?
Answer: T/C (dose: 50.0 mg/kg/injection, schedule: Q01DX005 (ip), vehicle: saline): 93 % of control; T/C (dose: 100.0 mg/kg/injection, schedule: Q01DX005 (ip), vehicle: saline): 92 % of control; T/C (dose: 200.0 mg/kg/injection, schedule: Q01DX005 (ip), vehicle: saline): 102 % of control

Question: What does the source list for `CCOC(CNCc1cc(C)c2[nH]c3ccccc3c2c1C)OCC`?
Answer: T/C [6]: 100 % of control; T/C [7]: 102 % of control; T/C [8]: 110 % of control

Question: What does the source list for `CN(C)c1ccc(/C=C/c2ccc(Br)cc2)cc1`?
Answer: T/C [2]: 89 % of control; T/C (dose: 100.0 mg/kg/injection, schedule: Q01DX009 (ip), vehicle: saline with Tween-80): 88 % of control; T/C [5]: 89 % of control

Question: How did the T/C (dose: 0.39 mg/kg/injection, schedule: Q01DX009 (ip), vehicle: saline with Tween-80) turn out when `COc1cc(OC)c(/C=C/c2c3ccccc3cc[n+]2C)c(OC)c1` was run?
Answer: 108 % of control

Question: What about the T/C (dose: 0.78 mg/kg/injection, schedule: Q01DX009 (ip), vehicle: saline with Tween-80) of the same molecule?
Answer: 121 % of control

Question: What about the T/C (dose: 3.13 mg/kg/injection, schedule: Q01DX009 (ip), vehicle: saline with Tween-80) of the same molecule?
Answer: 152 % of control

Question: Which T/C (dose: 25.0 mg/kg/injection, schedule: Q04DX002 (ip), vehicle: saline with Tween-80) does the source give for `CSC(=S)/N=c1\c(C)cccn1C` here?
Answer: 98 % of control

Question: And the T/C (dose: 50.0 mg/kg/injection, schedule: Q04DX002 (ip), vehicle: saline with Tween-80)?
Answer: 100 % of control

Question: And the T/C (dose: 100.0 mg/kg/injection, schedule: Q04DX002 (ip), vehicle: saline with Tween-80)?
Answer: 102 % of control

Question: For `O=[N+]([O-])c1cc2c([N+](=O)[O-])cccc2o1`, which T/C [4] is on record?
Answer: 102 % of control

Question: What about the T/C (dose: 200.0 mg/kg/injection, schedule: Q04DX003 (ip), vehicle: Klucel (hydroxypropylcellulose) (HPC)) of the same molecule?
Answer: 103 % of control

Question: What does the source list for `Oc1cccc2ccccc12`?
Answer: T/C (dose: 25.0 mg/kg/injection, schedule: Q01DX005 (ip), vehicle: water): 100 % of control; T/C (dose: 50.0 mg/kg/injection, schedule: Q01DX005 (ip), vehicle: water): 101 % of control; T/C (dose: 100.0 mg/kg/injection, schedule: Q01DX005 (ip), vehicle: water): 111 % of control; T/C (dose: 200.0 mg/kg/injection, schedule: Q01DX005 (ip), vehicle: water): 104 % of control; T/C (dose: 400.0 mg/kg/injection, schedule: Q01DX005 (ip), vehicle: water): 93 % of control

Question: `CN(C)NP(=S)(NN(C)C)Oc1ccccc1` was tested. Which T/C [6] did it give?
Answer: 117 % of control

Question: What about the T/C [7] of the same molecule?
Answer: 99 % of control

Question: Which T/C (dose: 400.0 mg/kg/injection, schedule: Q01DX009 (ip), vehicle: saline) does the source give for `O=c1cc(O)cc[nH]1` here?
Answer: 100 % of control and 96 % of control

Question: And the T/C (dose: 600.0 mg/kg/injection, schedule: Q01DX009 (ip), vehicle: saline)?
Answer: 101 % of control and 106 % of control

Question: Which results are given for `COc1ccccc1/C=C/C1=C(C)CCC(c2ccccc2OC)C1C` (configuration not stated)?
Answer: T/C [6]: 90 % of control; T/C [7]: 89 % of control; T/C [8]: 89 % of control

Question: What does the source list for `CC(=O)OCC1OC(n2ccc(N)nc2=O)C(OC(C)=O)C1OC(C)=O` (configuration not stated)?
Answer: T/C (dose: 100.0 mg/kg/injection, schedule: Q01DX009 (ip), vehicle: saline): 162 % of control; T/C (dose: 200.0 mg/kg/injection, schedule: Q01DX009 (ip), vehicle: saline): 178 % of control

Question: Which results are given for `Oc1cc(O)c(Br)c(O)c1`?
Answer: T/C (dose: 7.5 mg/kg/injection, schedule: Q01DX005 (ip), vehicle: saline): 108 % of control; T/C (dose: 15.0 mg/kg/injection, schedule: Q01DX005 (ip), vehicle: saline): 111 % of control; T/C (dose: 30.0 mg/kg/injection, schedule: Q01DX005 (ip), vehicle: saline): 105 % of control

Question: What does the source list for `[N-]=[N+]=CC(=O)C1OC1c1ccc2ccccc2c1` (configuration not stated)?
Answer: T/C (dose: 25.0 mg/kg/injection, schedule: Q01DX005 (ip), vehicle: saline with Tween-80): 93 % of control; T/C [6]: 100 % of control; T/C [7]: 99 % of control; T/C [8]: 105 % of control

Question: With `N#Cc1c(Cl)cccc1N1CCSCC1` as the molecule, how does the T/C (dose: 60.0 mg/kg/injection, schedule: Q01DX005 (ip), vehicle: Klucel (hydroxypropylcellulose) (HPC)) read?
Answer: 94 % of control

Question: And the T/C (dose: 120.0 mg/kg/injection, schedule: Q01DX005 (ip), vehicle: Klucel (hydroxypropylcellulose) (HPC))?
Answer: 102 % of control

Question: What about the T/C (dose: 240.0 mg/kg/injection, schedule: Q01DX005 (ip), vehicle: Klucel (hydroxypropylcellulose) (HPC)) of the same molecule?
Answer: 100 % of control

Question: With `CCC(/C=C/c1ccccc1)=N\Nc1ccc(Cl)cc1` as the molecule, how does the T/C (dose: 60.0 mg/kg/injection, schedule: Q01DX005 (ip), vehicle: saline with Tween-80) read?
Answer: 104 % of control

Question: And the T/C (dose: 120.0 mg/kg/injection, schedule: Q01DX005 (ip), vehicle: saline with Tween-80)?
Answer: 101 % of control

Question: And the T/C (dose: 240.0 mg/kg/injection, schedule: Q01DX005 (ip), vehicle: saline with Tween-80)?
Answer: 98 % of control

Question: Which T/C (dose: 1.56 mg/kg/injection, schedule: Q01DX005 (ip), vehicle: Klucel (hydroxypropylcellulose) (HPC)) does the source give for `Cc1cc[c]([Sn]([Cl])([O][Sn]([Cl])([c]2ccc(C)cc2)[c]2ccc(C)cc2)[c]2ccc(C)cc2)cc1` here?
Answer: 105 % of control

Question: What about the T/C (dose: 3.12 mg/kg/injection, schedule: Q01DX005 (ip), vehicle: Klucel (hydroxypropylcellulose) (HPC)) of the same molecule?
Answer: 96 % of control

Question: What about the T/C (dose: 3.12 mg/kg/injection, schedule: Q01DX005 (ip), vehicle: saline) of the same molecule?
Answer: 115 % of control

Question: What about the T/C (dose: 6.25 mg/kg/injection, schedule: Q01DX005 (ip), vehicle: Klucel (hydroxypropylcellulose) (HPC)) of the same molecule?
Answer: 94 % of control

Question: And the T/C (dose: 6.25 mg/kg/injection, schedule: Q01DX005 (ip), vehicle: saline)?
Answer: 118 % of control

Question: And the T/C (dose: 12.5 mg/kg/injection, schedule: Q01DX005 (ip), vehicle: Klucel (hydroxypropylcellulose) (HPC))?
Answer: 99 % of control

Question: Which T/C [1] does the source give for `CCn1c(=O)c2n[nH]nc2n(CCCl)c1=O` here?
Answer: 101 % of control

Question: And the T/C [3]?
Answer: 103 % of control

Question: What about the T/C (dose: 200.0 mg/kg/injection, schedule: Q01DX009 (ip), vehicle: Klucel (hydroxypropylcellulose) (HPC)) of the same molecule?
Answer: 96 % of control

Question: `C1=CC2(C=CC13OCCO3)OCCO2` was tested. Which T/C (dose: 25.0 mg/kg/injection, schedule: Q04DX003 (ip), vehicle: Klucel (hydroxypropylcellulose) (HPC)) did it give?
Answer: 107 % of control

Question: And the T/C (dose: 50.0 mg/kg/injection, schedule: Q04DX003 (ip), vehicle: Klucel (hydroxypropylcellulose) (HPC))?
Answer: 99 % of control

Question: And the T/C [4]?
Answer: 103 % of control

Reference: PubChem BioAssay AID330 (DTP/NCI, 2004)
